From patent publication US4654326A, “Inhibition of plant viruses with oligonucleotides” (priority 1984, dated 1987) come the findings set out here.

Entries after “also recorded” stand apart in the source; their conditions may differ. Where two headings read alike, the source gives them in different places.

For orientation: inhibition means how much of the control response was suppressed.

For series [1], the system named is TMV. Put plainly: Inhibition of TMV replication in tobacco protoplasts (homogenates assayed for local lesions). Format: cell-based, tobacco mosaic virus. Conditions: for inhibition at 0.1 µM: Tobacco mosaic virus, 1 × 10^-7 M, added within 3 hours of infection, average of four experiments. As for the experimental part: (§1) Plant material treatment and measurement of infectivity. Partially purified AVF was prepared. The growth of N. glutinosa, N. tabacum Var. "Samsun", N. tabacum cv. Samsun NN, and preparation and inoculation of protoplasts were as described. To evaluate the effect of 2',5'-cores, nucleotides and nucleosides on TMV replication, various concentrations were added to 10 ml of protoplast suspension (1×10^5 cells/ml) at various times after inoculation with TMV. Protoplasts were incubated at 25° C. under continuous illumination of about 1500 Lx. At various times protoplasts were collected by centrifugation and homogenized. The homogenate was inoculated onto 12 half-leaves of N. glutinosa plants and compared to a standard solution of purified TMV on the opposite half-leaves. Lesion counts were adjusted to 10^6 live protoplasts and calibrated. Control protoplasts (no Nucleotides added) were assayed simultaneously. The assays for antiviral activity on TMV-infected tobacco leaf discs were done by enzyme-linked immunosorbent assay. The ability of the 2',5'-cores, nucleosides, and nucleotides to inhibit TMV replication in the intact plant was determined by infectivity tests as follows. Solutions containing 5 μg/ml TMV, 0.1 g carborundum (100 Tyler mesh), and 2',5'-cores, nucleosides, or nucleotides were applied onto 12 half-leaves of N. glutinosa. The remaining half-leaves were controls (inoculated with a solution containing no nucleotides). The infection was allowed to proceed 48 hours under continuous illumination.
the TMVinfected protoplasts within 3 hours of infection.
^b Average of four experiments.
by the 2',5cores, nucleosides and nucleotides was calculated as the
percent of local leasions produced in N. glutinosa treated by homogenates
of protoplasts compared to nontreated protoplasts.

In series [2] the test system is TMV. Put plainly: Inhibition of TMV replication in intact N. glutinosa leaves (local lesion infectivity test). The series is classed as in vivo, tobacco mosaic virus. Conditions: for inhibition at 1 µM: Tobacco mosaic virus, 48 h, read-out: Inhibition of TMV replication in N. glutinosa leaves; for Inhibition of TMV replication in N. glutinosa leaves: 1 × 10^-6 M in the infecting solution, 48 hours after infection (Table 3).

In series [3] the test system is TMV. Put plainly: TMV replication in TMV-infected tobacco leaf discs (ELISA). The series is classed as cell-based, tobacco mosaic virus. Conditions: up to 2×10^-7 M (FIG. 1). As for the experimental part:
as §1, with “Solutions containing 5 μg/ml TMV, 0.1 g carborundum (100 Tyler mesh), and 2',5'-cores, nucleosides, or nucleotides were applied onto 12 half-leaves of N. glutinosa. The remaining half-leaves were controls (inoculated with a solution containing no nucleotides). The infection was allowed to proceed 48 hours under continuous illumination.” left out
TMV-infected tobacco leaf discs, treatment and TMV determination. […] Discs were removed at various times after TMV inoculation and their TMV content was determined. […]

Another series concerns N. glutinosa. Format: in vivo. Conditions: non-infected plants, 1×10^-6 M, two week period. As for the experimental part:
Effect of 2',5'-adenylate trimer core and its analogs on TMV replication in intact plants. […] The cores inhibited the formation of local lesions following TMV infection by 89-99% (Table 3). […] Non-infected plants were treated with 1×10^-6 M 2',5'adenylate trimer core, 2',5'-cordycepin trimer core, 2',5'-A-A-ara-A, and 2',5'-A-A-Tu (data not shown).

[4] abbreviates: read-out: Inhibition of TMV replication after 24 hr.
Setting [5] is: read-out: Inhibition of TMV replication after 48 hr.
Where [6] appears, read: read-out: Inhibition of TMV replication after 72 hr.
The mark [7] stands for this setting: 1×10^-6 M in the TMV-infecting solution.

Turning to `Nc1ncnc2c1ncn2[C@@H]1O[C@H](COP(=O)(O)O)[C@@H](O)[C@H]1O` [AMP], the “Inhibition of TMV replication in protoplasts (in words)” value (“Inhibition … in protoplasts (in words)” for short) in the series with TMV [1] is given as “less inhibitory; also recorded: some inhibition of TMV replication”. In addition, the values for the inhibition at 0.1 µM in the series with TMV [1] (setting [4]) and in the series with TMV [1] (setting [5]) were 22% and 33%, respectively. In the series with TMV [2], the inhibition at 1 µM was found to be 10%. The “Inhibition of TMV replication in tobacco leaf discs (in words)” value in the series on TMV [3] is “no inhibition of TMV replication”.

Consider `Nc1ncnc2c1ncn2[C@@H]1O[C@H](CO)[C@@H](O)[C@H]1O` [Adenosine, adenosine], for which the “Inhibition … in protoplasts (in words)” value is reported as “less inhibitory” with TMV [1] and “some inhibition of TMV replication” in the series with TMV [1] (listed as adenosine). The inhibition at 0.1 µM was 14% in the series on TMV [1] (setting [4]) and 0% in the series on TMV [1] (setting [5]). The inhibition at 1 µM in the series with TMV [2] worked out at 0%. For the same compound, the “Inhibition of TMV replication in tobacco leaf discs (in words)” value with TMV [3] is recorded as “no inhibition of TMV replication”.

For `Nc1ncnc2c1ncn2[C@@H]1O[C@H](COP(=O)(O)O)[C@@H](O)[C@@H]1O` [Ara-AMP], the inhibition at 1 µM in the series on TMV [2] turned out to be 0%.

For `Nc1ncnc2c1ncn2[C@@H]1O[C@H](CO)[C@@H](O)[C@@H]1O` [Ara-a], in the series on TMV [2], the inhibition at 1 µM turned out to be 0%.

On to `Nc1ncnc2c1ncn2[C@@H]1O[C@H](COP(=O)(O)O)C[C@H]1O` [Cordycepin monophosphate, Cordycepin 5'-monophosphate], for which, in the series with TMV [2], the inhibition at 1 µM was 0%.

Consider `Nc1ncnc2c1ncn2[C@@H]1O[C@H](CO)C[C@H]1O` [Cordycepin, cordycepin], for which the “Inhibition … in protoplasts (in words)” value in the series on TMV [1] is on record as “less inhibitory”. Moreover, the inhibition at 0.1 µM with TMV [1] (setting [5]) is 21%; in the series on TMV [1] (setting [6]), 32%. Also, in the series on TMV [2], the inhibition at 1 µM worked out at 0%.

As to `OC[C@H]1O[C@@H](n2cnc3c(O)ncnc32)[C@H](O)[C@@H]1O` [Inosine, inosine], the “Inhibition … in protoplasts (in words)” value with TMV [1] is on record as “less inhibitory”. For the same compound, the inhibition at 0.1 µM in the series on TMV [1] (setting [5]) was 22%; with TMV [1] (setting [6]) it was 25%. In addition, the inhibition at 1 µM in the series with TMV [2] stood at 0%.

With `Nc1ncnc2c1ccn2[C@@H]1O[C@H](COP(=O)(O)O)[C@@H](O)[C@H]1O` [TuMP, tubercidin 5'-monophosphate], the inhibition at 1 µM in the series with TMV [2] was 0%.

As for `Nc1ncnc2c1ccn2[C@@H]1O[C@H](CO)[C@@H](O)[C@H]1O` [Tubercidin, tubercidin], the inhibition at 1 µM in the series on TMV [2] came to 0%.

For the compound “adenylyl-(2' 5')-adenylyl-(2' 5')-9-β-D-arabinofuranosyladenine [2',5'-A-A-ara-A]”, the “Inhibition of TMV replication in N. glutinosa (in words)” value with TMV [2] (setting [7]) is recorded as “potent inhibitors of TMV replication”; with TMV [2] (no single concentration stated), “inhibition of TMV replication”; in the series on TMV [2] (no single concentration stated, listed as A-A-ara-A), “also inhibited TMV replication”. Also, the “Inhibition of TMV replication in N. glutinosa leaves” value in the series on TMV [2] is 94%. In addition, the “Toxicity (chlorosis or necrosis)” value with N. glutinosa is “No toxicity (chlorosis or necrosis) was observed”.

“adenylyl-(2' 5')-adenylyl-(2' 5)-tubercidin [2',5'-A-A-Tu]”: the “Inhibition of TMV replication in N. glutinosa (in words)” value is “potent inhibitors of TMV replication” in the series on TMV [2] (setting [7]) and “also inhibited TMV replication” in the series on TMV [2] (no single concentration stated). For the same compound, in the series on TMV [2], the “Inhibition of TMV replication in N. glutinosa leaves” value came out at 95%. Further, the “Toxicity (chlorosis or necrosis)” value in the series on N. glutinosa is “No toxicity (chlorosis or necrosis) was observed”.
